Measurements reported in BindingDB's records for doi:10.1038/sj.bjp.0703341 (Friedrich-Schiller-University Jena, 2000).
Where “and” joins values, the source holds several entries; their conditions need not be identical. Equal values may be shown once.

Legend:
[1] = target: 5-hydroxytryptamine receptor 2B (Rattus norvegicus, UniProt P30994)
[2] = target: T1, 5-hydroxytryptamine receptor 2C (Sus scrofa, UniProt G7ZKZ7)
T1 sequence (G7ZKZ7 whole entry): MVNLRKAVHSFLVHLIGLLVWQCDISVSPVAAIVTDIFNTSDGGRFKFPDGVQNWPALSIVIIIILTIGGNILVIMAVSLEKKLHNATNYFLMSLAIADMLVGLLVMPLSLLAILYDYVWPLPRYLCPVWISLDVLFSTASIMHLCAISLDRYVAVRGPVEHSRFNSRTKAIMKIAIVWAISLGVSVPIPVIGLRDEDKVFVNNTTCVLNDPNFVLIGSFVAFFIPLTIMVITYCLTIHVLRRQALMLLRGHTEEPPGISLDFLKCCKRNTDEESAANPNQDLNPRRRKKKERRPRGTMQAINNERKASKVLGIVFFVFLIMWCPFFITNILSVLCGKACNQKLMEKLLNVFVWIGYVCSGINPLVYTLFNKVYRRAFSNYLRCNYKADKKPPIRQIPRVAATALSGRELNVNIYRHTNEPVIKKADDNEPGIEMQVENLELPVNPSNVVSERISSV

[3] = target: 5-hydroxytryptamine receptor 6 (Rattus norvegicus, UniProt P31388)
[4] = target: 5-hydroxytryptamine receptor 7 (Rattus norvegicus, UniProt P32305)
5-hydroxytryptamine receptor 7, sequence (P32305 whole entry): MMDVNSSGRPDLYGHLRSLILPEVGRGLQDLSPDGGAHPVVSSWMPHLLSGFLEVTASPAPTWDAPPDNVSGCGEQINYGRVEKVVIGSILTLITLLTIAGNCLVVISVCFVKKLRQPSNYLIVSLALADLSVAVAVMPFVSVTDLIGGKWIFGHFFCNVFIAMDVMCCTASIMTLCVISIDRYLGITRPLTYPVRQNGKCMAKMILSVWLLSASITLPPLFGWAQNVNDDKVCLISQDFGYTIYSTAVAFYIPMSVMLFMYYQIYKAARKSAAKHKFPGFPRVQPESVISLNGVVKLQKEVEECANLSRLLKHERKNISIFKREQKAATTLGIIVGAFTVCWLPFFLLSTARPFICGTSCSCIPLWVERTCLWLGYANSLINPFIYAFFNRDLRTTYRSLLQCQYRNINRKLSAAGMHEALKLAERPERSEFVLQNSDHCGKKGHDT

5-hydroxytryptamine receptor 2B, sequence (P30994 whole entry): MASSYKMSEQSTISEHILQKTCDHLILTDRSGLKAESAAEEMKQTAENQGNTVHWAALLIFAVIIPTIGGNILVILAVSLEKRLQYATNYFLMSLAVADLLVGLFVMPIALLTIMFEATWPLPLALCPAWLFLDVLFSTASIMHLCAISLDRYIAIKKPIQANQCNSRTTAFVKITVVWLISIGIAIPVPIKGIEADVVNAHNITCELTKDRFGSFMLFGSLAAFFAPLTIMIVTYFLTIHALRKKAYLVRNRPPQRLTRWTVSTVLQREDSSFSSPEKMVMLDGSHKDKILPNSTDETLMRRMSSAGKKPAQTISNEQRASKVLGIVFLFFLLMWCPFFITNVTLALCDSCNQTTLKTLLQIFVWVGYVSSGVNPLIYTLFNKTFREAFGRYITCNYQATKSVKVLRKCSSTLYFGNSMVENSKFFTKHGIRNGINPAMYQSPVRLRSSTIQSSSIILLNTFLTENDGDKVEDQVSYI
5-hydroxytryptamine receptor 6, sequence (P31388 whole entry): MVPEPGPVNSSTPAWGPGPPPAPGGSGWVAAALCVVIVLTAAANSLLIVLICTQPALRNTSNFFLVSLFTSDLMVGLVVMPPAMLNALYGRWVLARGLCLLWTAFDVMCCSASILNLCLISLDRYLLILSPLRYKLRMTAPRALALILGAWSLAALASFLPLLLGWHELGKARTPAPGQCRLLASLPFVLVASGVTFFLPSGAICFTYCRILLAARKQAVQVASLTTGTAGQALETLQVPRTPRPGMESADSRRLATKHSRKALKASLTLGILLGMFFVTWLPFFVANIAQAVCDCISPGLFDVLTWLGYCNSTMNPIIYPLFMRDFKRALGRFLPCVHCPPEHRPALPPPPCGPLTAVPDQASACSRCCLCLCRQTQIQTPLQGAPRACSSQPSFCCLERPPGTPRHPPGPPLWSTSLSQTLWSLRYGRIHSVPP

Structure (SMILES) | Ki [1] | Ki [2] | Ki [3] | Ki [4]
CC(O)C(C)OC(=O)C1CC2c3cccc4c3c(cn4C(C)C)CC2N(C)C1 (stereo not drawn) [CAS_60634-51-7] | 6.31 nM | 7.94 nM | – | –
CC[C@@H](CO)NC(=O)[C@@H]1C=C2c3cccc4c3c(cn4C)C[C@H]2N(C)C1 | – | 2.51 nM | 398 nM | –
CN1CCC(=C2c3ccccc3CCc3sccc32)CC1 [NSC_27400] | – | 7.94 nM | – | –
CN1C[C@H](CNC(=O)OCc2ccccc2)C[C@@H]2c3cccc4c3c(cn4C)C[C@H]21 [METERGOLINE] | – | 0.63 nM | 31.6 nM | –
CN(C)CC/C=C1\c2ccccc2Sc2ccc(Cl)cc21 | – | – | 3.16 nM | 5.01 nM
CN1CCN(C2=Nc3ccccc3Oc3ccc(Cl)cc32)CC1 [13-chloro-10-(4-methylpiperazin-1-yl)-2-oxa-9-azatricyclo[9.4.0.0^{3,8}]pentadeca-1(11),3,5,7,9,12,14-heptaene] | – | – | 15.9 nM | 39.8 nM
CN(C)CCC=C1c2ccccc2CCc2ccccc21 | – | – | 63.1 nM | 126 nM
OCCN1CCN(CCCN2c3ccccc3Sc3ccc(Cl)cc32)CC1 [4-[3-(2-chlorophenothiazin-10-yl)propyl]-1-piperazineethanol] | – | – | 15.9 nM | 25.1 nM
Cc1nc2sccn2c(=O)c1CCN1CCC(=C(c2ccc(F)cc2)c2ccc(F)cc2)CC1 | – | 2.51 nM | 39.8 nM | –
O=C(CCCN1CCC2(CC1)C(=O)NCN2c1ccccc1)c1ccc(F)cc1 [8-[4-(4-fluorophenyl)-4-oxidanylidene-butyl]-1-phenyl-1,3,8-triazaspiro[4.5]decan-4-one] | – | 1260 nM | – | –
Clc1ccc2c(c1)C(N1CCNCC1)=Nc1ccccc1O2 | – | – | 6.31 nM | –
CSc1ccc2c(c1)C(N1CCN(C)CC1)Cc1ccccc1S2 (stereo not drawn) [methanesulfonic acid;1-methyl-4-(3-methylsulfanyl-5,6-dihydrobenzo[b][1]benzothiepin-5-yl)piperazine] | – | 25.1 nM | – | –
COC(=O)[C@@H]1[C@H]2C[C@H]3c4[nH]c5ccccc5c4CCN3C[C@@H]2CC[C@@H]1O [yohimbic acid methyl ester] | 39.8 nM | 1580 nM and > 10000 nM | – | –
CN1C[C@@H](NS(=O)(=O)N(C)C)C[C@@H]2c3cccc4c3c(cn4C)C[C@H]21 [MESULERGINE] | – | 1.58 nM | 1580 nM | 6.31 nM
O=C(c1ccc(F)cc1)C1CCN(CCn2c(=O)[nH]c3ccccc3c2=O)CC1 [3-(2-{4-[(4-fluorophenyl)carbonyl]piperidin-1-yl}ethyl)-1,2,3,4-tetrahydroquinazoline-2,4-dione] | 3160 nM | 100 nM | > 10000 nM | –
